According to patent publication US20100331424A1, “Use of Axomadol for Treatment of Arthrosis Pain” (Gruenenthal GmbH, priority 2007, published 2010):
Counter-ions that a name gives are not always drawn.

Key:
[1] = system: moderate to severe chronic pain as a result of osteoarthritis (arthrosis, OA) of functional class I-III; test: Both clinical studies (A and B), statements made for both; assay type: in vivo, patients; details: after 4 weeks
Experimental: (§1) Two studies with a respective treatment period of 4 weeks were conducted to determine the efficacy and safety of axomadol in patients with moderate to severe chronic pain as a result of osteoarthritis (arthrosis, OA) of functional class I-III.

[2] = system: CFA-hyperalgesia (CFA-HA); test: Antihyperalgesic effect in the chronic inflammation pain model (Complete Freund's Adjuvant, electronic von Frey); assay type: in vivo, Sprague Dawley rats
Experimental: The test to determine the antihyperalgesic effect of axomadol in chronic inflammation pain was conducted on rats in the Complete Freund's Adjuvant animal model (CFA).
A model for chronic inflammation represents the monoarthritis triggered by the Complete Freund's Adjuvant (CFA). By injecting a small quantity of CFA (100 μg M. tuberculosis) into the back paw a local inflammatory reaction restricted in time to 2-4 weeks occurred.
Sprague Dawley rats from a commercial breeder (Janvier, Belgium) having a weight of 140-160 g were used as test animals. The CFA-HA was induced in rats by subplantar injection of CFA (100 μl of the 1 mg/ml mycobacteria (heat-killed M. tuberculosis)/oil suspension (IFA; Difco)) into the back paw (ipsilaterally). The injection day was defined as day 0 (d 0).
Hyperalgesia to a mechanical tactile stimulus was detected by means of an electronic von Frey measuring instrument (Somedic Electronic von Frey System, Somedic Sales AB, Horby, Sweden). The paw was stimulated by subplantar application. To quantify the sensitivity of both the ipsi- and the contralateral paw to the mechanical stimulus, the paw pull-away threshold was given in grams of applied pressure. The median was formed from the four measured values per paw. The pull-away threshold of the ipsi- and contralateral paw was determined on day 1 after CFA injection before (=initial value) and at different times (15, 20 and 60 minutes) after substance dose (measured value). The efficacy of a substance was calculated as % inhibition of hyperalgesia as follows:
% inhibition of HA=(1−HA measured value/HA initial value)×100
HA initial value=pull away threshold contralateral−pull away threshold ipsilateral before substance dose
HA measured value=pull away threshold contralateral−pull away threshold ipsilateral after substance dose
In total, 10 rats were used in each test animal group. The mean±SEM was calculated from the medians of the individual animals. The significance calculation was conducted using the two-factor analysis of the variance (ANOVA) for repeated measurements. In the case of a significant treatment effect, a comparison in pairs was conducted at different measurement times by a Fisher's significance test, followed by a post hoc Dunnett test. The results were assessed as statistically significant at p<0.05.
In order to determine the maximum efficacy, the substance was administered intravenously (IV) up to the maximum possible dose.

[3] = system: moderate to severe chronic pain as a result of osteoarthritis (OA) of the knee; test: Clinical Study B: axomadol vs oxycodone CR and placebo, 4 weeks, patients with OA of the knee; assay type: in vivo; details: for p of primary endpoint compared to the placebo group: per protocol set
Experimental: In this study, patients with OA of the knee were divided into 4 groups. Two of the patient groups received different doses of axomadol hydrochloride: 100 mg and 150 mg based on the free base, twice daily in each case after a titration period of 2 weeks, in which the dose of axomadol was increased on a weekly basis. […] A further group was given a placebo twice daily.

[4] = system: moderate to severe chronic pain as a result of osteoarthritis (OA) of the hip or knee; test: Clinical Study A: axomadol vs tramadol and placebo, 4 weeks, patients with OA of the hip or knee; assay type: in vivo; details: for Decrease in pain intensity compared to baseline: full analysis set, day 29, axomadol 44, 66, 110 mg bid, tramadol 100 mg bid
Experimental: as §1
In this study, patients with OA of the hip or knee were divided into 5 groups.

COc1cccc([C@@]2(O)C[C@H](O)CC[C@@H]2CN(C)C)c1 (racemic) [Axomadol, (1RS,3RS,6RS)-6-dimethylaminomethyl-1-(3-methoxyphenyl)-cyclohexane-1,3-diol]
Decrease in pain intensity [1]: clinically significant decrease in pain intensity
Analgesic efficacy compared to morphine, oxycodone and tramadol (in words) ([2]; chronic inflammation pain model): better analgesic efficacy
Effect on CFA-induced hyperalgesia (in words) ([2]; rat): significantly reduces
Frequency of undesirable side-effects which caused patients to discontinue the study ([3]; 100 mg group): 16.3%
Frequency of undesirable side-effects which caused patients to discontinue the study ([3]; 150 mg group): 17.7%
Severity of undesirable effects ([3]; axomadol groups 100 mg and 150 mg twice daily): slight to moderate
p of average pain intensity of the last 24 hours on day 29 compared to the placebo ([3]; full analysis set, 100 mg twice daily): 0.0190
p of primary endpoint compared to the placebo group ([3]; 100 mg twice daily group): 0.0068
p of primary endpoint compared to the placebo group ([3]; 150 mg twice daily group): 0.0079
Decrease in pain intensity compared to baseline [4]: clinically relevant decrease in pain intensity
p of decrease in pain intensity compared to the placebo group ([4]; per protocol set, 110 mg twice daily): < 0.05
Decrease in pain intensity, dose dependence ([4]; per protocol set, axomadol 44, 66, 110 mg twice daily): higher efficacy at the higher dose

COc1cccc([C@@]2(O)C[C@H](O)CC[C@@H]2CN(C)C)c1 (racemic) [Axomadol-HCl, (1RS,3RS,6RS)-6-dimethylaminomethyl-1-(3-methoxyphenyl)-cyclohexane-1,3-diol]
Dose from which overlap with antinociceptive effect (comparators: also side-effects that impair measurement) ([2]; rat, IV): From 14.7 mg/kg: overlap with antinociceptive
% Inhibition of HA ([2]; rat, IV, dose 2.15 mg/kg): 16%
% Inhibition of HA ([2]; rat, IV, dose 10.0 mg/kg): 40%
% Inhibition of HA ([2]; rat, IV, dose 14.7 mg/kg): 9%
Antihyperalgesic effect at higher doses ([2]; rat, IV, doses higher than 10 mg/kg): 9%
Instance of the most frequent undesirable effects vs every other treatment group ([4]; 110 mg twice daily): higher

CN1CC[C@]23c4c5ccc(O)c4O[C@H]2[C@@H](O)C=C[C@H]3[C@H]1C5 [Morphine]
Dose from which overlap with antinociceptive effect (comparators: also side-effects that impair measurement) ([2]; rat, IV): From 4.64 mg/kg: overlap with antinociceptive
% Inhibition of HA ([2]; rat, IV, dose 0.46 mg/kg): 8%
% Inhibition of HA ([2]; rat, IV, dose 1.00 mg/kg): 20%
% Inhibition of HA ([2]; rat, IV, dose 2.15 mg/kg): 27%

COc1ccc2c3c1O[C@H]1C(=O)CC[C@@]4(O)[C@@H](C2)N(C)CC[C@]314 [Oxycodone]
Dose from which overlap with antinociceptive effect (comparators: also side-effects that impair measurement) ([2]; rat, IV): From 0.681 mg/kg: overlap with antinociceptive
% Inhibition of HA ([2]; rat, IV, dose 0.215 mg/kg): 18%
% Inhibition of HA ([2]; rat, IV, dose 0.681 mg/kg): 26%
p of primary endpoint compared to the placebo group ([3]; oxycodone CR 20 mg twice daily group): 0.0154

COc1cccc(C2(O)CCCCC2CN(C)C)c1 (stereo not shown) [Tramadol, reference compound]
Dose from which overlap with antinociceptive effect (comparators: also side-effects that impair measurement) ([2]; rat, IV): From 4.64 mg/kg: overlap with antinociceptive
Decrease in pain intensity compared to baseline [4]: not observed
